Data on 8 molecules can be found in ChEMBL document CHEMBL1250421, “Synthesis of 5-deoxy-beta-D-galactofuranosides as tools for the characterization of beta-D-galactofuranosidases” (Bioorg Med Chem, 2010).

In the first assay the test system is Penicillium fellutanum. Nature of the assay: Activity of Penicillium fellutanum exo-beta-D-galactofuranosidase by spectrophotometry.
The Km is the substrate concentration at which the rate is half of its maximum. `O=[N+]([O-])c1ccc(O[C@@H]2O[C@@H]([C@H](O)CO)[C@H](O)[C@H]2O)cc1`: the Km came to 310 µM.

Consider `OC[C@@H](O)[C@@H]1O[C@@H](OCc2ccccc2)[C@H](O)[C@H]1O`, for which the Km stood at 3700 µM.

For the molecule `CO[C@@H]1O[C@@H]([C@H](O)CO)[C@H](O)[C@H]1O`, the Km is 2600 µM.

Biological target in a further assay: not listed separately
In words: Inhibition of Penicillium fellutanum exo-beta-D-galactofuranosidase by spectrophotometry.
A word on the IC50: it is the concentration at which inhibition is half-maximal. A lower IC50 goes with greater potency in that assay. For `O=[N+]([O-])c1ccc(S[C@@H]2O[C@@H]([C@H](O)CO)[C@H](O)[C@H]2O)cc1`, the 50% inhibitory concentration (IC50) worked out at 600 µM.

Consider `O=C1O[C@@H]([C@H](O)CO)[C@H](O)[C@H]1O`, for which the IC50 turned out to be 20 µM.

Regarding `Nc1ccc(S[C@@H]2O[C@@H]([C@H](O)CO)[C@H](O)[C@H]2O)cc1`, the IC50 came to 80 µM.

`CO[C@H]1CNC(=S)N1[C@@H]1O[C@@H]([C@H](O)CO)[C@H](O)[C@H]1O` yielded an IC50 of 100 µM.

Consider `OC[C@@H](O)[C@@H]1O[C@@H](n2cc[nH]c2=S)[C@H](O)[C@H]1O`, for which the IC50 stood at 1050 µM.
